According to patent US9527840B2, “Substituted-quinoxaline-type piperidine compounds and the uses thereof” (priority 2007, dated 2016):

How the values were obtained:
[1] = target: kappa opioid receptor (Homo sapiens, UniProt P41145); assay: In vitro kappa-opioid receptor functional assay ([35S]GTPγS); format: biochemical
[2] = rat, in vivo
[3] = target: T1, hERG channel (Homo sapiens, UniProt Q12809); assay: In vitro hERG (human ether a-go-go gene) assay; format: cell-based
T1 construct: expressed in transfected cells
T1 sequence (Q12809 whole entry): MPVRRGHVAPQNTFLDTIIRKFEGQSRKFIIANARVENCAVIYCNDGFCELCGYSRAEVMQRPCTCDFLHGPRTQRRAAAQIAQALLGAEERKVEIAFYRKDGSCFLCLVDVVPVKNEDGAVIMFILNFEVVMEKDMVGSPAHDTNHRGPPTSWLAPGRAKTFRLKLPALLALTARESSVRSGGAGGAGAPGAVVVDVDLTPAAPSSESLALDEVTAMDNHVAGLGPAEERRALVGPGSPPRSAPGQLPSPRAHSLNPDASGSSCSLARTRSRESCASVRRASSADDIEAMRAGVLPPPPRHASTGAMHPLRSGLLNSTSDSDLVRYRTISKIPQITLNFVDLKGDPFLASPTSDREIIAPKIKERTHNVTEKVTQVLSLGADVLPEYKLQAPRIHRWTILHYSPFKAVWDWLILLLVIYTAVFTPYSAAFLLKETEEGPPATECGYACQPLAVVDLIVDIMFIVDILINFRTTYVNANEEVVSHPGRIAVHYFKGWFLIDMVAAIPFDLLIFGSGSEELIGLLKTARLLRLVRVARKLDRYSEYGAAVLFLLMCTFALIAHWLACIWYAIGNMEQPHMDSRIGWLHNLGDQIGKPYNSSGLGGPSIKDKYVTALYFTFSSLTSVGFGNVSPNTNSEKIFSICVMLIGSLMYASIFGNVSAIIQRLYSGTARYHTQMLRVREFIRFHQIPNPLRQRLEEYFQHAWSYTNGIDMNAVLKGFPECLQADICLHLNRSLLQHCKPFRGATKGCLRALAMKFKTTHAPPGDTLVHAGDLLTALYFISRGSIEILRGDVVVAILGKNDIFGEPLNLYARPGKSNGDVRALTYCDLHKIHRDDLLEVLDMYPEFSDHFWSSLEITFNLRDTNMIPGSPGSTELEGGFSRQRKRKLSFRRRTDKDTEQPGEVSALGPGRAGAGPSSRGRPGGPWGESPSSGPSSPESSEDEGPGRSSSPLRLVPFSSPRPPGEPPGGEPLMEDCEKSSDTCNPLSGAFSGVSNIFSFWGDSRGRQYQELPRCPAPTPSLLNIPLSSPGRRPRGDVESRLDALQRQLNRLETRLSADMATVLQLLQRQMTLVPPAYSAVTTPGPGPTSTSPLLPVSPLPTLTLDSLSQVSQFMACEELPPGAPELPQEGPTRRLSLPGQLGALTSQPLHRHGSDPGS

[4] = test system: guinea pig purkinje fibers

Sequence of kappa opioid receptor (P41145 whole entry): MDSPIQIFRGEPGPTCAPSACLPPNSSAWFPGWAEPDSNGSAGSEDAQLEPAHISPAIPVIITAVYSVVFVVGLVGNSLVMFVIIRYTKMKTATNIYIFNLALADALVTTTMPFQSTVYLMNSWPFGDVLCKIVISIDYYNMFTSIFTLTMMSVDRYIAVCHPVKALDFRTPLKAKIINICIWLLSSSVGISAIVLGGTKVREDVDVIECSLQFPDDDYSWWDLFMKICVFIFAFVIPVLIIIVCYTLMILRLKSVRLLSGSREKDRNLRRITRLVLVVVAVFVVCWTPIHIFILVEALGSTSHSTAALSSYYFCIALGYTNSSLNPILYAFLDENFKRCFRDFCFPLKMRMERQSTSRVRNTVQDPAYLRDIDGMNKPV

SMILES	EC50 [1]	abnormal behavioral side effects, such as sedation, hyperactivity and/or hypoactivity [2]	cardiovascular side effects (hERG assay) [3]	cardiovascular side effects (APD) [4]
O=C(O)C1CCN(c2nc3ccccc3n([C@H]3C[C@H]4CC[C@@H](C3)N4C3CCCCCCC3)c2=O)CC1 [Compound 99, 1-(4-((endo)-8-cyclooctyl-8-azabicyclo[3.2.1]octan-3-yl)-3-oxo-3,4-dihydroquinoxalin-2-yl)piperidine-4-carboxylic acid]	> 100 µM			
O=C(O)c1nc2ccccc2n([C@H]2C[C@H]3CCC[C@@H](C2)N3C2CC3CCCC(C3)C2)c1=O (stereo partly drawn) [Compound 362, 4-((endo)-9-((exo)-bicyclo[3.3.1]nonan-3-yl)-9-azabicyclo[3.3.1]nonan-3-yl)-3-oxo-3,4-dihydroquinoxaline-2-carboxylic acid]		reduced abnormal behavioral side effects	reduced cardiovascular side effects	reduced cardiovascular side effects
